Assay [1] deals with Cryptococcus neoformans. Put plainly: Cryptococcus growth inhibition by alamar blue – cell lysis, cherry-picks, replicate tests, mechanism study for C. neoformans antifungal project, dose response (AID 686999). In kind it is functional, organism-based. A general note: Resazurin is reduced to fluorescent resorufin, in cell work by metabolically active cells.
Assay [2] relates to Cryptococcus neoformans. Put plainly: PubChem AID 686997. The format is functional, organism-based.
The nature of assay [3]: Late stage assay provider results from the probe development effort to identify inhibitors of the Plasmodium falciparum M17 Leucine Aminopeptidase (M17LAP): radiolabel-based cell-based dose response assay to identify compounds that inhibit P. falciparum growth in RBCs Set 2. In kind it is functional.
Assay [4] addresses Metabotropic glutamate receptor 3 (Rattus norvegicus, UniProt P31422). Put plainly: mGlu3 negative allosteric modulator potency, dose response, HEK/GIRK cells, thallium flux, rat (AID 651839). The format is functional.
A short description of assay [5]: IRAP inhibitors, dose response, selectivity assay for ERAP1 modulator project, biochemical, Leu-AMC fluorescence, cherry-picked samples, set 2 (AID 743340).
Assay [6] can be described thus: cytotoxicity in OVCAR4 cells, dose response, cytotoxicity control for PAX8 inhibitor project, cell-based, plate reader, dry powder, SA11 (AID 743150). The format is functional. To be noted: OVCAR-4.
The nature of assay [7]: cytotoxicity in COV362 ovarian cancer cells, dose response, cytotoxicity control for PAX8 inhibitor project, cell-based, plate reader, dry powder, SA12 (AID 743144). In kind it is functional.
Assay [8] is described as follows: IOSE-T80 ovarian epithelial cell cytotoxicity, dose response, cytotoxicity control for PAX8 inhibitor project, plate reader, dry powder samples (AID 743045). In kind it is functional, cell-based.
A short description of assay [9]: cytotoxicity in OV-90 ovarian cancer cells, dose response, PAX8 inhibitor project, cell-based, plate reader, dry powder, SA8 (AID 743149). The format is functional.
The nature of assay [10]: cytotoxicity in COV434 cells, dose response, cytotoxicity control for PAX8 inhibitor project, cell-based, plate reader, dry powder, SA7 (AID 743145). In kind it is functional.
Assay [11] in a line: PAX5 activity inhibitors, dose response, selectivity assay for PAX8 inhibitor project, cell-based, plate reader, dry powder samples (AID 743047).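 Further: HEK293 cells carrying a Pax5 driven CD19 promoter luciferase reporter; potency of inhibitors that lower reporter luminescence.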 In kind it is functional.
Assay [12] in a line: NIH:OVCAR-3 ovarian cancer cell cytotoxicity, dose response, PAX8 inhibitor project, plate reader, dry powder samples (AID 743044). In kind it is functional, cell-based.
A short description of assay [13]: cytotoxicity dependent on PAX8, dose response, cell-based, plate reader, dry powder (AID 743049). In kind it is functional.
The nature of assay [14]: IGROV1 ovarian cancer cell cytotoxicity, dose response, PAX8 inhibitor project, plate reader, dry powder samples (AID 743043). In kind it is functional, cell-based. To be noted: IGROV-1.
Assay [15] in a line: PAX2 cell-based inhibition, dose response, selectivity assay for PAX8 inhibitor project, plate reader, dry powder samples (AID 743048).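 Further: HEK293 cells carrying a WT1 promoter luciferase reporter driven by expressed Pax2; potency is for inhibition of Pax2 driven reporter signal.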 In kind it is functional.
A short description of assay [16]: TRPM1 promoter luciferase reporter signal decrease, dose response, MITF inhibitor project, cell-based, SK-MEL-5, dry powder, set 8 (AID 624430). The format is functional. A general note: In a reporter assay the amount or activity of a reporter protein is the signal.
The nature of assay [17]: MITF Orthogonal Assay: SK-MEL-5 CTG Assay Measured in Cell-Based System Using Plate Reader - 2084-02_Inhibitor_Dose_DryPowder_Activity_Set7. In kind it is functional.
Assay [18] can be described thus: MITF: Counter assay: A375 proliferation Measured in Cell-Based System Using Plate Reader - 2084-03_Inhibitor_Dose_DryPowder_Activity_Set8. To be noted: A-375. The format is functional.
In assay [19] the target is Mu-type opioid receptor (Homo sapiens, UniProt P35372). Put plainly: Late-stage results from the probe development effort to identify antagonists of OPRK1: luminescence-based cell-based dose response OPRM1 counterscreen. In kind it is functional. For orientation: The purpose of a counterscreen is to sort out artefacts and off-target activity.
Chain of Mu-type opioid receptor (P35372 whole entry): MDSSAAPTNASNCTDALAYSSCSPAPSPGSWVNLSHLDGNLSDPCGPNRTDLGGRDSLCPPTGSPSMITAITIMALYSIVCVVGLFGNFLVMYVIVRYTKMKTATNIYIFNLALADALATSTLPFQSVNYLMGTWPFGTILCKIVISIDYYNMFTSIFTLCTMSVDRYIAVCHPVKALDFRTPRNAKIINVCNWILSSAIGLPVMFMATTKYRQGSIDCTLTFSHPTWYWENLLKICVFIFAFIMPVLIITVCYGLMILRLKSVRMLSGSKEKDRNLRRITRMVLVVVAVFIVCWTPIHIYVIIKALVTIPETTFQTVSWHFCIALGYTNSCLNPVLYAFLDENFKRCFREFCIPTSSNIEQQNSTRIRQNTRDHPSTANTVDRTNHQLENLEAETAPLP
The target of assay [20] is Kappa-type opioid receptor (Homo sapiens, UniProt P41145). Put plainly: OPRK1 antagonists, late-stage follow-up, cell-based, fluorescence, dose response (AID 652032). The format is functional.
Chain of Kappa-type opioid receptor (P41145 whole entry): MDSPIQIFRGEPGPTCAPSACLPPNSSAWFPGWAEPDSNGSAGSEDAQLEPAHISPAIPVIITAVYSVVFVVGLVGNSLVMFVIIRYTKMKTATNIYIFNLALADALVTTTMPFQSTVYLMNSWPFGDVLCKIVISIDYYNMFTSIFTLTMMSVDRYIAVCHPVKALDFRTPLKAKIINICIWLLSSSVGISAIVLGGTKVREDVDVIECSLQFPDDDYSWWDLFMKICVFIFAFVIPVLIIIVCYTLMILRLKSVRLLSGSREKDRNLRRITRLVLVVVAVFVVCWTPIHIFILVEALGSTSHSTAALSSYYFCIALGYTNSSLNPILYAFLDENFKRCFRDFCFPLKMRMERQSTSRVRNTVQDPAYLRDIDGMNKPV
Assay [21] addresses Delta-type opioid receptor (Homo sapiens, UniProt P41143). Put plainly: Late-stage results from the probe development effort to identify antagonists of OPRK1: fluorescence-based cell-based dose response OPRD1 counterscreen. The format is functional.
Assay [22] in a line: HepG2 cell cytotoxicity, dose response, cytotoxicity control, ATP luminescence, cherry-pick, activator set 2 (AID 1053143). In kind it is functional, cell-based.
Assay [23] concerns the target Intestinal-type alkaline phosphatase (Homo sapiens, UniProt P09923). Nature of the assay: human intestinal alkaline phosphatase activators, dose response, biochemical, luminescence, uHTS hits (AID 463120). The format is functional.

Active and inactive are the calls of the source.

The AC50 is the concentration giving half of the maximal activity seen. In general, IC50 refers to the point on the concentration scale where inhibition reaches its midpoint. By EC50 is commonly meant the concentration that produces a half-maximal response.

Chain of Metabotropic glutamate receptor 3 (P31422 whole entry): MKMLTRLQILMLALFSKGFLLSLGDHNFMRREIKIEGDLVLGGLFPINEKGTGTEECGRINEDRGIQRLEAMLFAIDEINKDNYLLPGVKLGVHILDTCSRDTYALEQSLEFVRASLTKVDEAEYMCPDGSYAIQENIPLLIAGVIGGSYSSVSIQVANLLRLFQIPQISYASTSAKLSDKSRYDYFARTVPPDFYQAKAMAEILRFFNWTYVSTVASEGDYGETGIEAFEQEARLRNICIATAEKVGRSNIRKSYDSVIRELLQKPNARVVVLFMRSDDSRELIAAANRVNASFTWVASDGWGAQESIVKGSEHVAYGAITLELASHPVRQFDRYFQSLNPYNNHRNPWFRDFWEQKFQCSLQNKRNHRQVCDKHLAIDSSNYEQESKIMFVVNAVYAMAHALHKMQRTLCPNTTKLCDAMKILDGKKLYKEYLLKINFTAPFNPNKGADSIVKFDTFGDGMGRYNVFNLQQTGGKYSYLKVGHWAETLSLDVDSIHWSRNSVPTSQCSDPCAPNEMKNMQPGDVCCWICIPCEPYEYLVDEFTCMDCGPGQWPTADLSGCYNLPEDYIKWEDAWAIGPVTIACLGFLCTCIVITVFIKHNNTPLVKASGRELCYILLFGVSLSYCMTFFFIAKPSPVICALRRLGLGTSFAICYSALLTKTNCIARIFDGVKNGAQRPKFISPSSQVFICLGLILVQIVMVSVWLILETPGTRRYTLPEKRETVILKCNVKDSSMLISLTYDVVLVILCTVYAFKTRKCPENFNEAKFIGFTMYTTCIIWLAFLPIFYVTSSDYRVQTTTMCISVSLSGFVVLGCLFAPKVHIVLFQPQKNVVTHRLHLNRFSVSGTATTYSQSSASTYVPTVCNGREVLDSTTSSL
Chain of Intestinal-type alkaline phosphatase (P09923 whole entry): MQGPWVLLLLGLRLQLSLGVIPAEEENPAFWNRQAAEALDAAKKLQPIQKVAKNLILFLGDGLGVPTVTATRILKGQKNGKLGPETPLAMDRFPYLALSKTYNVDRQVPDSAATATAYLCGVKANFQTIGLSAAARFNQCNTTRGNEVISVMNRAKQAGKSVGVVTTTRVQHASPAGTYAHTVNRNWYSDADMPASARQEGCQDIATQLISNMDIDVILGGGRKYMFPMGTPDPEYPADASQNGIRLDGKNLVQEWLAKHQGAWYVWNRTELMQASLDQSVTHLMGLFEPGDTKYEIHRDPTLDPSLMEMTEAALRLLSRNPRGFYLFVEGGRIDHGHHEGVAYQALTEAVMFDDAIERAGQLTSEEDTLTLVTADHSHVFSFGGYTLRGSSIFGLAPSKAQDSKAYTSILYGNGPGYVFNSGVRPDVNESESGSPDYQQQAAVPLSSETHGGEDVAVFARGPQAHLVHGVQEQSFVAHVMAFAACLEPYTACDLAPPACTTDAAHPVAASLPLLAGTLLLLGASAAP
Chain of Delta-type opioid receptor (P41143 whole entry): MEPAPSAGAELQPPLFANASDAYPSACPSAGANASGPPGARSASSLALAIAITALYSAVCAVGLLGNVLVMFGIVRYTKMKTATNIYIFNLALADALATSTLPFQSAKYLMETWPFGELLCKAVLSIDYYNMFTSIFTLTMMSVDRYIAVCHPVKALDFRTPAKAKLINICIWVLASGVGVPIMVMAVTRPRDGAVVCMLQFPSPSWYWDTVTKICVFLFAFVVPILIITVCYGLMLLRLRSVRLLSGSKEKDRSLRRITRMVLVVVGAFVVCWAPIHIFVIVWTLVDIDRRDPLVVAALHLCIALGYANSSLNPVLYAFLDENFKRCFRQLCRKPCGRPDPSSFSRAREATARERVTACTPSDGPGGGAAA

Turning to `COC(=O)C1=C(C)N(Cc2ccc(Cl)cc2)C(=S)NC1c1ccc(F)cc1` (centres undefined), the AC50 in assay [1] was 43 µM (active); in assay [2], 35.4 µM (active); in assay [2] (Cryptococcus neoformans) it was 23.6 µM (active).

In the case of `COc1ccc(CC(=O)NO)cc1`, the IC50 in assay [3] is 20 µM (inactive).

Turning to `COc1ccc(C#Cc2ccc(C(=O)N3CC[C@H](O)C3)cc2)cc1`, in assay [4], the IC50 is 8.66 µM (active).

Take `C[C@@H]1CCCCO[C@@H](CN(C)S(C)(=O)=O)[C@@H](C)CN([C@@H](C)CO)C(=O)c2cc(NS(=O)(=O)c3ccc(Cl)cc3)ccc2O1`: the AC50 in [5] is 17.6 µM (active).

Consider `O=C(CCCN1C(=O)/C(=C\c2ccccc2OC(F)F)SC1=S)Nc1cccnc1`, for which the concentration at half-maximal activity (AC50) in [6] was 14.8 µM (active); in assay [7], 18.1 µM (active); in assay [8], 46.9 µM (active); in assay [9], 46.2 µM (active); in assay [10], 34.5 µM (active); in assay [11], 81 µM (active). Further, the AC50 is 21.6 µM (active) in assay [12], 7.44 µM (active) in [13], 9.15 µM (active) in assay [14] and > 100 µM (inactive) in assay [15].

With `CN1CCN(C2=C(Nc3cccc(Cl)c3)C(=O)c3ccccc3C2=O)CC1`, the AC50 is 5.11 µM (active) in assay [16], 11.1 µM (active) in assay [17] and 30.7 µM (active) in assay [18].

In the case of `COC(=O)c1cc(Br)cnc1N1CCC(N[C@@H]2CCCC[C@@H]2O)CC1`, the values for the IC50 in assay [19], in assay [20] and in assay [21] were 19 µM (inactive), 0.579 µM (active) and > 50 µM (inactive), respectively.

Take `c1ccc(Nc2ccnc(Nc3ccccc3)n2)cc1`: the AC50 in assay [22] was 26 µM (active). For the same compound, the EC50 in [23] is > 100 µM (inactive).

For the origin of these results see ChEMBL document CHEMBL1201862, “PubChem BioAssay data set” (2004).
